Data published in ChEMBL document CHEMBL1201862, “PubChem BioAssay data set” (2004).
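Growth conditions: 96-well plates. Treatment: test compound, 48 hours, 5 concentrations. Analysis: linear interpolation between bracketing concentrations; unreached endpoints set to highest concentration. Abbreviation: GI50, concentration required for 50% inhibition of growth.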 Activity calls are given as the source filed them. No stated cut-off is given here; in the data, active = GI50 up to about 1.1 µM and inactive = higher.

How the values were obtained:
Assay in all cases: inhibition of tumour cell growth, NCI panel, 48 h
NCI-H460 = test system: NCI-H460
SNB-19 = test system: SNB-19
UACC-257 = test system: UACC-257
M14 = test system: M14
SK-MEL-2 = test system: SK-MEL-2
SK-MEL-28 = test system: SK-MEL-28
Hs-578T = test system: Hs-578T
MOLT-4 = test system: MOLT-4
HCT-116 = test system: HCT-116
NCI-H522 = test system: NCI-H522
T47D = test system: T47D
SF-539 = test system: SF-539
MDA-MB-435 = test system: MDA-MB-435
MDA-N = test system: MDA-N
CAKI-1 = test system: CAKI-1
A549 = test system: A549
HL-60 = test system: HL-60
SF-295 = test system: SF-295
SN12C = test system: SN12C
RXF 393 = test system: RXF 393

In the case of `CC(=O)NC(CSC1=C2NC(=O)\C=C/C=C\C=C/C(C)C(O)CC(=O)/C(C)=C\CC(O)/C=C\C(C)C(O)C(C)C=C(C)C(=O)c3c(O)c(C)cc(c3C1=O)C2=O)C(=O)O` (stereo not drawn), the GI50 (NCI-H460) is reported as 94 µM (inactive), the GI50 (SNB-19) is reported as 61.4 µM (inactive) and the GI50 (UACC-257) is reported as 41.8 µM (inactive). The GI50 (M14) was > 100 µM (inactive), the GI50 (SK-MEL-2) was 80.7 µM (inactive) and the GI50 (SK-MEL-28) was 30.3 µM (inactive). For the same molecule, the GI50 (Hs-578T) was 27.5 µM (inactive), the GI50 (MOLT-4) was 28.6 µM (inactive) and the GI50 (HCT-116) was 36.4 µM (inactive). The GI50 (NCI-H522) was 17.3 µM (inactive), the GI50 (T47D) was 91 µM (inactive) and the GI50 (SF-539) was > 100 µM (inactive). For the same molecule, the GI50 (MDA-MB-435) was > 100 µM (inactive), the GI50 (MDA-N) was 51.4 µM (inactive) and the GI50 (CAKI-1) was > 100 µM (inactive). The GI50 (A549) was > 100 µM (inactive), the GI50 (HL-60) was 23.6 µM (inactive) and the GI50 (SF-295) was > 100 µM (inactive). For the same molecule, the GI50 (SN12C) was 79.1 µM (inactive).
With `CN(Cc1cnc2nc(N)nc(N)c2n1)c1ccc(C(=O)NC(CCS(=O)(=O)O)C(=O)O)cc1` (stereo not drawn) the GI50 (NCI-H460) was 0.409 µM (active), the GI50 (SNB-19) was 7.16 µM (inactive) and the GI50 (UACC-257) was > 100 µM (inactive). The GI50 (M14) was 0.682 µM (active), the GI50 (SK-MEL-2) was > 100 µM (inactive) and the GI50 (SK-MEL-28) was > 100 µM (inactive). The GI50 (Hs-578T) was > 100 µM (inactive), the GI50 (MOLT-4) was 0.593 µM (active) and the GI50 (HCT-116) was 0.0745 µM (active). The GI50 (NCI-H522) was 0.527 µM (active), the GI50 (T47D) was > 100 µM (inactive) and the GI50 (SF-539) was 0.824 µM (active). For the same molecule, the GI50 (MDA-MB-435) was 0.426 µM (active), the GI50 (MDA-N) was 0.35 µM (active) and the GI50 (CAKI-1) was > 100 µM (inactive). For the same molecule, the GI50 (A549) was 0.421 µM (active), the GI50 (HL-60) was < 0.0336 µM (active) and the GI50 (SF-295) was 0.681 µM (active). The GI50 (SN12C) was 4.57 µM (inactive).
`CCOC(=O)/C(C)=C\[C@@]1(C)O[C@@H](C)[C@@](C)(OC(C)=O)[C@@H]1OC(C)=O` was tested, and the GI50 (NCI-H460) was 43 µM (inactive), the GI50 (SNB-19) was > 100 µM (inactive) and the GI50 (UACC-257) was 28.2 µM (inactive). For the same molecule, the GI50 (M14) was 61.5 µM (inactive), the GI50 (SK-MEL-2) was 61.8 µM (inactive) and the GI50 (SK-MEL-28) was > 100 µM (inactive). For the same molecule, the GI50 (Hs-578T) was 27 µM (inactive), the GI50 (MOLT-4) was 30 µM (inactive) and the GI50 (HCT-116) was 40.9 µM (inactive). For the same molecule, the GI50 (NCI-H522) was 25.2 µM (inactive), the GI50 (T47D) was 19.9 µM (inactive) and the GI50 (SF-539) was > 100 µM (inactive). The GI50 (MDA-MB-435) was 41.7 µM (inactive), the GI50 (MDA-N) was 44.5 µM (inactive) and the GI50 (CAKI-1) was 33 µM (inactive). The GI50 (A549) was 45.4 µM (inactive), the GI50 (HL-60) was 39.6 µM (inactive) and the GI50 (SF-295) was 36.8 µM (inactive). For the same molecule, the GI50 (SN12C) was 57.1 µM (inactive).
With `O=c1c(/C=C/c2c(O)ccc3ccccc23)nnc2sc(-c3cccc([N+](=O)[O-])c3)nn12` the GI50 (UACC-257) was 13.2 µM (inactive), the GI50 (M14) was 10.8 µM (inactive) and the GI50 (SK-MEL-2) was 5.57 µM (inactive). For the same molecule, the GI50 (SK-MEL-28) was > 100 µM (inactive), the GI50 (Hs-578T) was 12.5 µM (inactive) and the GI50 (RXF 393) was 19.4 µM (inactive). The GI50 (MOLT-4) was 3.94 µM (inactive), the GI50 (HCT-116) was 4.98 µM (inactive) and the GI50 (NCI-H522) was 9.33 µM (inactive). For the same molecule, the GI50 (MDA-MB-435) was 17.1 µM (inactive), the GI50 (MDA-N) was 28.7 µM (inactive) and the GI50 (CAKI-1) was 19.1 µM (inactive). For the same molecule, the GI50 (HL-60) was 2.62 µM (inactive), the GI50 (SF-295) was 26.8 µM (inactive) and the GI50 (SN12C) was 9.33 µM (inactive).
`CC(=O)OCC1OC(n2cnc(C(N)=S)c2N)C(OC(C)=O)C1OC(C)=O` (stereo not drawn) was tested, and the GI50 (NCI-H460) was > 100 µM (inactive), the GI50 (SNB-19) was > 100 µM (inactive) and the GI50 (UACC-257) was > 100 µM (inactive). The GI50 (M14) was > 100 µM (inactive), the GI50 (SK-MEL-2) was > 100 µM (inactive) and the GI50 (SK-MEL-28) was > 100 µM (inactive). The GI50 (Hs-578T) was > 100 µM (inactive), the GI50 (MOLT-4) was > 100 µM (inactive) and the GI50 (HCT-116) was > 100 µM (inactive). The GI50 (NCI-H522) was > 100 µM (inactive), the GI50 (T47D) was > 100 µM (inactive) and the GI50 (SF-539) was > 100 µM (inactive). For the same molecule, the GI50 (MDA-MB-435) was > 100 µM (inactive), the GI50 (MDA-N) was > 100 µM (inactive) and the GI50 (CAKI-1) was > 100 µM (inactive). For the same molecule, the GI50 (A549) was > 100 µM (inactive), the GI50 (HL-60) was > 100 µM (inactive) and the GI50 (SF-295) was > 100 µM (inactive). The GI50 (SN12C) was > 100 µM (inactive).
`NC(=O)C1CCCN1C(=O)N(CCCl)N=O` (stereo not drawn) was tested, and the GI50 (NCI-H460) was > 100 µM (inactive), the GI50 (SNB-19) was > 100 µM (inactive) and the GI50 (UACC-257) was > 100 µM (inactive). The GI50 (M14) was > 100 µM (inactive), the GI50 (SK-MEL-2) was > 100 µM (inactive) and the GI50 (SK-MEL-28) was > 100 µM (inactive). The GI50 (Hs-578T) was > 100 µM (inactive), the GI50 (MOLT-4) was > 100 µM (inactive) and the GI50 (HCT-116) was > 100 µM (inactive). For the same molecule, the GI50 (NCI-H522) was > 100 µM (inactive), the GI50 (T47D) was > 100 µM (inactive) and the GI50 (SF-539) was > 100 µM (inactive). For the same molecule, the GI50 (MDA-MB-435) was > 100 µM (inactive), the GI50 (MDA-N) was > 100 µM (inactive) and the GI50 (CAKI-1) was > 100 µM (inactive). For the same molecule, the GI50 (A549) was > 100 µM (inactive), the GI50 (HL-60) was > 100 µM (inactive) and the GI50 (SF-295) was > 100 µM (inactive). For the same molecule, the GI50 (SN12C) was > 100 µM (inactive).
In the case of `CC(=O)CCC(=O)C(=[N+]=[N-])S(=O)(=O)c1ccccc1`, the GI50 (NCI-H460) is reported as > 100 µM (inactive), the GI50 (SNB-19) is reported as > 100 µM (inactive) and the GI50 (UACC-257) is reported as > 100 µM (inactive). For the same molecule, the GI50 (M14) was > 100 µM (inactive), the GI50 (SK-MEL-2) was > 100 µM (inactive) and the GI50 (SK-MEL-28) was > 100 µM (inactive). The GI50 (Hs-578T) was > 100 µM (inactive), the GI50 (RXF 393) was > 100 µM (inactive) and the GI50 (MOLT-4) was > 100 µM (inactive). For the same molecule, the GI50 (HCT-116) was > 100 µM (inactive), the GI50 (NCI-H522) was 45.8 µM (inactive) and the GI50 (SF-539) was > 100 µM (inactive). For the same molecule, the GI50 (MDA-MB-435) was > 100 µM (inactive), the GI50 (MDA-N) was > 100 µM (inactive) and the GI50 (A549) was > 100 µM (inactive). The GI50 (HL-60) was > 100 µM (inactive), the GI50 (SF-295) was > 100 µM (inactive) and the GI50 (SN12C) was > 100 µM (inactive).
